{
  "source": "patent US9533999B2",
  "about": "“Fused thiazin-3-ones as KCA3.1 inhibitors” (Boehringer Ingelheim International GmbH, priority 2012, dated 2017)",
  "data": [
    {"test_system": "C57BL/6 mice", "experiment": "not given", "settings": "MOG35-55 peptide induced; cited from earlier work", "values": [
      {"smiles": "Clc1ccccc1C(c1ccccc1)(c1ccccc1)n1cccn1", "note": "[TRAM-34]", "inhibition in EAE model": "inhibits"}
    ]},
    {"target": "human KCa3.1 (Homo sapiens (Human), UniProt O15554)", "experiment": "KCa3.1 Assay (FLIPR thallium influx)", "type": "cell-based", "settings": "HEK293 cells over-expressing human KCa3.1; Tl+ influx, FLIPR dye; 15 min compound treatment", "experimental": "HEK293 cells over-expressing human KCa3.1 are used to measure the effects of compounds in inhibiting the KCa3.1 channel function. The assay is based on measuring the influx of Tl^+ through KCa3.1 using a FLIPR dye assay (FLIPR Potassium Ion Channel Assay Kit #R8154 by Molecular Devices). The day before the assay HEK293/KCa3.1 cells are seeded on a 384 well plate. On the day of the assay, media is removed and replaced with Molecular Devices Potassium Ion Channel dye then incubated for 1 hour according to manufacturer's recommendations. The cells are then treated with compounds or DMSO control for 15 min, followed by addition of thallium (final concentration=1.5 mM) and ionomycin (final concentration=1 uM). The plate is read on HAMAMATSU […] measuring fluorescence signal for 50 seconds using (Em: 565-625 nm). Data analysis: HAMAMATSU 6000 data are exported using max-min value for frame 10 and 40 and corrected by spatial uniformity correction. Percent of control (POC) is calculated as 100×(max-minFlsample−max-minFllow)/(max-minFlhi−max-minFllow). Max-min Flsample is max-min value of each sample well containing test compound. Max-min Fllow is average max-min value of wells containing reference inhibitory compound. Max-min Flhi is average max-min value of wells containing DMSO. IC50 values are determined by nonlinear curve fitting of the data from a duplicate 11-point concentration-response curve.", "units": {"IC50": "nM"}, "values": [
      {"smiles": "O=C1CS(=O)(=O)c2cccnc2N1Cc1cccc(C(F)(F)F)c1", "note": "[Compound I-1]", "IC50": 290},
      {"smiles": "CC(c1cccc(C(F)(F)F)c1)N1C(=O)CS(=O)(=O)c2cccnc21", "note": "(stereo not shown) [Compound I-2]", "IC50": 120},
      {"smiles": "O=C1CS(=O)(=O)c2cccnc2N1Cc1ccc(Cl)c(C(F)(F)F)c1", "note": "[Compound I-3]", "IC50": 180},
      {"smiles": "CC(c1ccc(Cl)c(C(F)(F)F)c1)N1C(=O)CS(=O)(=O)c2cccnc21", "note": "(stereo not shown) [Compound I-4]", "IC50": 140},
      {"smiles": "O=C1CS(=O)(=O)c2cccnc2N1Cc1ccc(F)c(OC(F)(F)F)c1", "note": "[Compound I-5]", "IC50": 49},
      {"smiles": "O=C1CS(=O)(=O)c2cccnc2N1CCc1ccccc1C(F)(F)F", "note": "[Compound I-6]", "IC50": 5000},
      {"smiles": "O=C1CS(=O)(=O)c2cccnc2N1CCc1cccc(C(F)(F)F)c1", "note": "[Compound I-7]", "IC50": 350},
      {"smiles": "CC(c1cc(C(F)(F)F)ccn1)N1C(=O)CS(=O)(=O)c2cccnc21", "note": "(stereo not shown) [Compound I-8]", "IC50": 1900},
      {"smiles": "CC(c1cccc(C(F)(F)F)c1)N1C(=O)CS(=O)(=O)c2cc(Cl)cnc21", "note": "(stereo not shown) [Compound I-9]", "IC50": 110},
      {"smiles": "O=C1CS(=O)(=O)c2cc(Cl)cnc2N1Cc1ccc(Cl)c(C(F)(F)F)c1", "note": "[Compound I-10]", "IC50": 180},
      {"smiles": "O=C1CS(=O)(=O)c2cccnc2N1Cc1ccc(Cl)c(OC(F)(F)F)c1", "note": "[Compound I-12]", "IC50": 77},
      {"smiles": "O=C1CS(=O)(=O)c2cccnc2N1Cc1ccc(Cl)c(S(=O)(=O)C(F)(F)F)c1", "note": "[Compound I-13]", "IC50": 830},
      {"smiles": "O=C1CS(=O)(=O)c2cc(Cl)cnc2N1Cc1ccc(F)c(OC(F)(F)F)c1", "note": "[Compound I-15]", "IC50": 92},
      {"smiles": "O=C1CS(=O)(=O)c2cccnc2N1CCc1cccc(Cl)c1", "note": "[Compound I-16]", "IC50": 2000},
      {"smiles": "COC(=O)c1ccc2c(n1)N(Cc1ccc(F)c(OC(F)(F)F)c1)C(=O)CS2(=O)=O", "note": "[Compound I-18]", "IC50": 88},
      {"smiles": "CC(c1cccc(C(F)(F)F)c1)N1C(=O)CS(=O)(=O)c2ccc(C(=O)N(C)C)nc21", "note": "(stereo not shown) [Compound I-19]", "IC50": 2200},
      {"smiles": "NC(=O)c1ccc2c(n1)N(Cc1ccc(Cl)c(C(F)(F)F)c1)C(=O)CS2(=O)=O", "note": "[Compound I-20]", "IC50": 490},
      {"smiles": "CC(c1cccc(C(F)(F)F)c1)N1C(=O)CS(=O)(=O)c2ncc(Br)cc21", "note": "(stereo not shown) [Compound I-21]", "IC50": 240},
      {"smiles": "C[C@@H](c1cccc(C(F)(F)F)c1)N1C(=O)CS(=O)(=O)c2nccnc21", "note": "[Compound I-22, 1,1-dioxo-4-[(S)-1-(3-trifluoromethyl-phenyl)-ethyl]-1,4-dihydro-2H-11ambda*6*-pyrazino[2,3-b][1,4]thiazin-3-one]", "IC50": 1100},
      {"smiles": "O=C1CS(=O)(=O)c2nccnc2N1Cc1ccc(F)c(OC(F)(F)F)c1", "note": "[Compound I-23]", "IC50": 170},
      {"smiles": "O=C1CS(=O)(=O)c2nccnc2N1Cc1cccc(C(F)(F)F)c1", "note": "[Compound I-24]", "IC50": 2600},
      {"smiles": "O=C1CS(=O)(=O)c2ncsc2N1Cc1cccc(C(F)(F)F)c1", "note": "[Compound I-25, 4,4-dioxo-7-(3-trifluoromethyl-benzyl)-4,7-dihydro-5H-41ambda*6*-thiazolo[4,5-b][1,4]thiazin-6-one]", "IC50": 3700},
      {"smiles": "O=C1CS(=O)(=O)c2ncsc2N1Cc1ccc(F)c(OC(F)(F)F)c1", "note": "[Compound I-26]", "IC50": 510},
      {"smiles": "Cc1nc2c(s1)N(Cc1ccc(F)c(OC(F)(F)F)c1)C(=O)CS2(=O)=O", "note": "[Compound I-27]", "IC50": 310},
      {"smiles": "Cc1nc2c(s1)N(Cc1cccc(C(F)(F)F)c1)C(=O)CS2(=O)=O", "note": "[Compound I-28]", "IC50": 4000},
      {"smiles": "Cc1nc2c(s1)N(Cc1cccc(OC(F)(F)F)c1)C(=O)CS2(=O)=O", "note": "[Compound I-29]", "IC50": 2400},
      {"smiles": "O=C1CS(=O)(=O)c2nc(C3CC3)sc2N1Cc1cccc(C(F)(F)F)c1", "note": "[Compound I-30]", "IC50": 4300},
      {"smiles": "O=C1CS(=O)(=O)c2ncsc2N1Cc1cccc(OC(F)(F)F)c1", "note": "[Compound I-31]", "IC50": 2200},
      {"smiles": "CC(c1cccc(C(F)(F)F)c1)N1C(=O)CS(=O)(=O)c2ncsc21", "note": "(stereo not shown) [Compound I-32]", "IC50": 1000},
      {"smiles": "O=C1CS(=O)(=O)c2scnc2N1Cc1ccc(F)c(OC(F)(F)F)c1", "note": "[Compound I-33]", "IC50": 110},
      {"smiles": "CC(C)c1nc2c(s1)S(=O)(=O)CC(=O)N2Cc1ccc(F)c(OC(F)(F)F)c1", "note": "[Compound I-34]", "IC50": 96},
      {"smiles": "CC(C)c1nc2c(s1)S(=O)(=O)CC(=O)N2Cc1cccc(C(F)(F)F)c1", "note": "[Compound I-35]", "IC50": 240},
      {"smiles": "CC(C)c1nc2c(s1)S(=O)(=O)CC(=O)N2Cc1cccc(OC(F)(F)F)c1", "note": "[Compound I-36]", "IC50": 380},
      {"smiles": "Cc1nc2c(s1)S(=O)(=O)CC(=O)N2Cc1cccc(C(F)(F)F)c1", "note": "[Compound I-37]", "IC50": 230},
      {"smiles": "CC(c1cccc(C(F)(F)F)c1)N1C(=O)CS(=O)(=O)c2ccsc21", "note": "(stereo not shown) [Compound I-38]", "IC50": 71},
      {"smiles": "O=C1CS(=O)(=O)c2ccsc2N1Cc1ccc(F)c(OC(F)(F)F)c1", "note": "[Compound I-39]", "IC50": 39},
      {"smiles": "O=C1CS(=O)(=O)c2sccc2N1Cc1ccc(F)c(OC(F)(F)F)c1", "note": "[Compound I-40]", "IC50": 48},
      {"smiles": "COC(=O)c1cc2c(s1)S(=O)(=O)CC(=O)N2Cc1cccc(C(F)(F)F)c1", "note": "[Compound I-41]", "IC50": 190},
      {"smiles": "COC(=O)c1cc2c(s1)S(=O)(=O)CC(=O)N2Cc1cccc(OC(F)(F)F)c1", "note": "[Compound I-42]", "IC50": 150},
      {"smiles": "COC(=O)c1cc2c(s1)S(=O)(=O)CC(=O)N2C(C)c1cccc(C(F)(F)F)c1", "note": "(stereo not shown) [Compound I-43]", "IC50": 120},
      {"smiles": "O=C1CSc2cccnc2N1Cc1cccc(OC(F)(F)F)c1", "note": "[II-1, 4-(3-trifluoromethoxy-benzyl)-4H-pyrido[3,2-b][1,4]thiazin-3-one]", "IC50": 52},
      {"smiles": "O=C1CSc2ncsc2N1Cc1cccc(C(F)(F)F)c1", "note": "[II-2, 7-(3-trifluoromethyl-benzyl)-7H-thiazolo[4,5-b][1,4]thiazin-6-one]", "IC50": 320},
      {"smiles": "NC(=O)c1ccc2c(n1)N(Cc1ccc(Cl)c(C(F)(F)F)c1)C(=O)CS2", "note": "[II-3]", "IC50": 180},
      {"smiles": "CC(c1cccc(C(F)(F)F)c1)N1C(=O)CSc2cccnc21", "note": "(stereo not shown) [II-4]", "IC50": 41},
      {"smiles": "O=C1CSc2cccnc2N1Cc1ccc(Cl)c(C(F)(F)F)c1", "note": "[II-5]", "IC50": 46},
      {"smiles": "CC(c1cc(C(F)(F)F)nn1C)N1C(=O)CSc2cccnc21", "note": "(stereo not shown) [II-6]", "IC50": 3600},
      {"smiles": "O=C1CSc2cccnc2N1Cc1ccc(Cl)c(SC(F)(F)F)c1", "note": "[II-7]", "IC50": 52},
      {"smiles": "O=C1CSc2cccnc2N1Cc1ccc(Cl)c(S(=O)(=O)C(F)(F)F)c1", "note": "[II-8]", "IC50": 47},
      {"smiles": "O=C1CSc2cc(Cl)cnc2N1Cc1ccc(F)c(OC(F)(F)F)c1", "note": "[II-9]", "IC50": 130},
      {"smiles": "O=C1CSc2cccnc2N1Cc1cccc(Br)c1", "note": "[II-10]", "IC50": 310},
      {"smiles": "O=C1CSc2ccc(CO)nc2N1Cc1ccc(Cl)c(C(F)(F)F)c1", "note": "[II-11]", "IC50": 66},
      {"smiles": "Cc1nc2c(s1)N(Cc1cccc(OC(F)(F)F)c1)C(=O)CS2", "note": "[II-12]", "IC50": 260},
      {"smiles": "O=C1CSc2ncsc2N1Cc1cccc(OC(F)(F)F)c1", "note": "[II-13]", "IC50": 160},
      {"smiles": "O=C1CSc2nc(C3CC3)sc2N1Cc1cccc(C(F)(F)F)c1", "note": "[II-14]", "IC50": 1600},
      {"smiles": "Cc1nc2c(s1)N(Cc1cccc(C(F)(F)F)c1)C(=O)CS2", "note": "[II-15]", "IC50": 490},
      {"smiles": "CC(c1cccc(C(F)(F)F)c1)N1C(=O)CSc2ncsc21", "note": "(stereo not shown) [II-16]", "IC50": 170},
      {"smiles": "O=C1CSc2ncsc2N1Cc1ccc(F)c(OC(F)(F)F)c1", "note": "[II-17]", "IC50": 60},
      {"smiles": "CC(C)c1nc2c(s1)SCC(=O)N2Cc1ccc(F)c(OC(F)(F)F)c1", "note": "[II-18]", "IC50": 250},
      {"smiles": "CC(C)c1nc2c(s1)SCC(=O)N2Cc1cccc(C(F)(F)F)c1", "note": "[II-19]", "IC50": 340},
      {"smiles": "CC(C)c1nc2c(s1)SCC(=O)N2Cc1cccc(OC(F)(F)F)c1", "note": "[II-20]", "IC50": 510},
      {"smiles": "CC(C)c1nc2c(s1)SCC(=O)N2C(C)c1cccc(C(F)(F)F)c1", "note": "(stereo not shown) [II-21]", "IC50": 400},
      {"smiles": "Cc1nc2c(s1)SCC(=O)N2Cc1cccc(C(F)(F)F)c1", "note": "[II-22]", "IC50": 73},
      {"smiles": "Cc1nc2c(s1)SCC(=O)N2C(C)c1cccc(C(F)(F)F)c1", "note": "(stereo not shown) [II-23]", "IC50": 67}
    ]},
    {"test_system": "mice", "experiment": "not given", "settings": "UUO-induced, treated mice; cited from earlier work", "values": [
      {"smiles": "Clc1ccccc1C(c1ccccc1)(c1ccccc1)n1cccn1", "note": "[TRAM-34]", "progression of renal fibrosis": "attenuated progression of renal fibrosis"}
    ]},
    {"test_system": "aortas of ApoE−/− mice", "experiment": "not given", "settings": "cited from earlier work", "values": [
      {"smiles": "Clc1ccccc1C(c1ccccc1)(c1ccccc1)n1cccn1", "note": "[TRAM-34]", "development of atherosclerosis": "significantly reduces the development of atherosclerosis"},
      {"smiles": "Clc1ccccc1C(c1ccccc1)(c1ccccc1)n1ccnc1", "note": "[clotrimazole]", "development of atherosclerosis": "significantly reduces the development of atherosclerosis"}
    ]}
  ]
}
